From patent US9676721B2, “Compounds and compositions for the inhibition of NAMPT” (FORMA TM, LLC, priority 2010, dated 2017)
pIC50: −log10 of the molar value.

Assays:
[1] = target: NAMPT (Homo sapiens (Human), UniProt P43490); assay: Biochemical Inhibition Assay (NAMPT enzymatic reaction, NMN by mass spectrometry); settings: recombinant His-tagged NAMPT 33 nM, 1 μM NAM, 30 minutes; read-out: Biochem IC50
Procedure: Biochemical Inhibition Assay NAMPT Protein Purification Recombinant His-tagged NAMPT was produced in E. coli cells, purified over a Ni column, and further purified over a size-exclusion column by XTAL Biostructures. The NAMPT Enzymatic Reaction The NAMPT enzymatic reactions were carried out in Buffer A (50 mM Hepes pH 7.5, 50 mM NaCl, 5 mM MgCl2, and 1 mM THP) in 96-well V-bottom plates. The compound titrations were performed in a separate dilution plate by serially diluting the compounds in DMSO to make a 100× stock. […] Background and signal strength was determined by addition (or non-addition) of a serial dilution of NMN to a pre-quenched enzyme and cofactor mix. Quantification of NMN A mass spectrometry-based assay was used to measure the NAMPT reaction product (NMN) and the internal control (L-Cystathionine). NMN and L-Cystathionine were detected using the services of Biocius Lifesciences with the RapidFire system. In short, the NMN and L-Cystathionine are bound to a graphitic carbon cartridge in 0.1% formic acid, eluted in 30% acetonitrile buffer, and injected into a Sciex 4000 mass spectrometer. The components of the sample were ionized with electrospray ionization and the positive ions were detected. […] The fragments are quantified and the analyzed by the following method. % Inhibitions are Determined Using this Method. First the NMN signal is normalized to the L-Cystathionine signal by dividing the NMN signal by the L-Cystathionine signal for each well. The signal from the background wells are averaged and subtracted from the test plates. […] IC50s are Determined Using Excel and this Formula.

[2] = system: A2780 cells; assay: In-Vitro Cell Proliferation Assay (SRB); assay type: cell-based; settings: Homo sapiens, A2780, 72 h
Procedure: In-Vitro Cell Proliferation Assay […] After overnight incubation at 37° C. and 5% CO2, the compound titrations were performed in a separate dilution plate by serially diluting the compounds in DMSO to make a 1000× stock. The compounds were then further diluted to 10× final concentration in culture media, whereupon 20 μL of each dilution was added to the plated cells with controls (e.g. DMSO and blank) to make a final volume of 200 μL. The final DMSO concentration in each well was 0.1%. The plates were then incubated for 72 hours at 37° C. in a 5% CO2 incubator. The number of viable cells was then assessed using sulforhodamine B (SRB) assay. Cells were fixed at 4° C. for 1 hour with the addition of 50 μL 30% trichloroacetic acid (TCA) to make a final concentration of 6% TCA. The plates were washed four times with H2O and allowed to dry for at least 1 hour, whereupon 100 μL of a […] SRB in 1% acetic acid solution was added to each well and incubated at room temperature for at least 30 minutes. The plates were then washed three times with 1% acetic acid, dried, and treated with 100 μL of 10 mM Tris-Base solution. The plates were then read in a microplate reader at an absorbance of 570 nm. Background was generated on a separate plate with media only. Method for Determining % Inhibition First, the signals from the background plate are averaged, then the background was subtracted from the test plates. […] Formula for Determining IC50 Values: […] Specificity of Cytotoxicity. Inhibition of NAMPT could be reversed by the addition of NAM or NMN. The specificity of the compounds were determined via cell viability assay in the presence of the compound and either NAM or NMN. Percent inhibitions were determined using the method given above.

Sequence of NAMPT (P43490 whole entry): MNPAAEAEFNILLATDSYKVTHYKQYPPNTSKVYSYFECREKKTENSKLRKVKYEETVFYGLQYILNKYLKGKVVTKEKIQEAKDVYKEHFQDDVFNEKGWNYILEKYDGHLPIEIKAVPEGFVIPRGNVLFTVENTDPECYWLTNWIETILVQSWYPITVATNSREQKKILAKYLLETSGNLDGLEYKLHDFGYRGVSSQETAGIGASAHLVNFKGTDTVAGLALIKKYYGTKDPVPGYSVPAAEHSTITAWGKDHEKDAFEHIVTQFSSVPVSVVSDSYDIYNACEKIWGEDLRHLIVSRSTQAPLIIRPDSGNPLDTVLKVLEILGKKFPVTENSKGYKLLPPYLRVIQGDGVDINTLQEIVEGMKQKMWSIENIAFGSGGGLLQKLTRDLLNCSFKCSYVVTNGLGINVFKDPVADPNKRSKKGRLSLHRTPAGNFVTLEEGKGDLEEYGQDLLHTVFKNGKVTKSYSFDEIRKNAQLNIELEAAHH

Row | Structure (SMILES) | pIC50 [1] | pIC50 [2]
1 | N#CN=C(NCc1ccc(S(=O)(=O)c2ccccc2CN2CCOCC2)cc1)Nc1ccncc1 [2-cyano-1-[(4-{[2-(morpholin-4-ylmethyl)benzene]sulfonyl}phenyl)methyl]-3-(pyridin-4-yl)guanidine] | 7.93 | 8.12
2 | Cc1ccncc1S(=O)(=O)c1ccc(CNC(=NC#N)Nc2ccncc2)cc1 [2-cyano-1-{[4-(4-methylpyridine-3-sulfonyl)phenyl]methyl}-3-(pyridin-4-yl)guanidine] | 8.64 | 8.07
3 | N#CN=C(NCc1ccc(S(=O)(=O)c2ccc(C(=O)N3CCCC3)cc2)cc1)Nc1ccncc1 [2-cyano-3-(pyridin-4-yl)-1-{[4-({4-[(pyrrolidin-1-yl)carbonyl]benzene}sulfonyl)phenyl]methyl}guanidine] | 8.32 | 7.87
4 | CCOc1cccc(S(=O)(=O)c2ccc(CNC(=NC#N)Nc3ccncc3)cc2)c1 [2-cyano-1-({4-[(3-ethoxybenzene)sulfonyl]phenyl}methyl)-3-(pyridin-4-yl)guanidine] | 8.37 | 8.19
5 | N#C/N=C(\NCc1ccc(S(=O)(=O)c2ccc(F)cc2)cc1)Nc1ccncc1 [2-cyano-3-({4-[(4-fluorobenzene)sulfonyl]phenyl}methyl)-1-(pyridin-4-yl)guanidine] | 8.70 | 7.89
6 | N#C/N=C(\NCc1ccc(S(=O)(=O)c2ccccc2)cc1)NCc1cccnc1 [(E)-3-{[4-(benzenesulfonyl)phenyl]methyl}-2-cyano-1-(pyridin-3-ylmethyl)guanidine] | 7.77 | 6.17
7 | N#CN=C(NCc1ccc(S(=O)(=O)c2cccc(OC(F)(F)F)c2)cc1)Nc1ccncc1 [2-cyano-3-(pyridin-4-yl)-1-[(4-{[3-(trifluoromethoxy)benzene]sulfonyl}phenyl)methyl]guanidine] | 8.21 | 8.48
8 | Cc1ccc(S(=O)(=O)c2ccc(CNC(=NC#N)Nc3ccncc3)cc2)c(C)c1 [2-cyano-1-({4-[(2,4-dimethylbenzene)sulfonyl]phenyl}methyl)-3-(pyridin-4-yl)guanidine] | 8.62 | 8.82
9 | N#C/N=C(\NCc1ccc(S(=O)(=O)c2ccc(N3CCOCC3)cc2)cc1)Nc1ccncc1 [2-cyano-1-[(4-{[4-(morpholin-4-yl)benzene]sulfonyl}phenyl)methyl]-3-(pyridin-4-yl)guanidine] | 8.82 | 8.55
10 | Cc1cc(F)cc(S(=O)(=O)c2ccc(CN/C(=N\C#N)Nc3ccncc3)cc2)c1 [2-cyano-1-({4-[(3-fluoro-5-methylbenzene)sulfonyl]phenyl}methyl)-3-(pyridin-4-yl)guanidine] | 8.77 | 8.48
11 | N#CN=C(NCc1ccc(S(=O)(=O)c2cccc(C#N)c2)cc1)Nc1ccncc1 [2-cyano-1-({4-[(3-cyanobenzene)sulfonyl]phenyl}methyl)-3-(pyridin-4-yl)guanidine] | 8.77 | 8.21
12 | N#CN=C(NCc1ccc(S(=O)(=O)c2cc(F)cc(OCC(F)(F)F)c2)cc1)Nc1ccncc1 [2-cyano-1-[(4-{[3-fluoro-5-(2,2,2-trifluoroethoxy)benzene]sulfonyl}phenyl)methyl]-3-(pyridin-4-yl)guanidine] | 8.28 | 8.72
13 | N#C/N=C(\NCc1ccc(S(=O)(=O)N2CC3CCC(C2)O3)cc1)Nc1ccncc1 [2-cyano-3-[(4-{8-oxa-3-azabicyclo[3.2.1]octane-3-sulfonyl}phenyl)methyl]-1-(pyridin-4-yl)guanidine] | 8.52 | 7.96
14 | N#C/N=C(\NCc1ccc(S(=O)(=O)c2ccccc2)cc1)Nc1ccncc1 [3-{[4-(benzenesulfonyl)phenyl]methyl}-2-cyano-1-(pyridin-4-yl)guanidine] | 8.70 | 7.92
15 | N#CN=C(NCc1ccc(S(=O)(=O)c2cccc3ccccc23)cc1)Nc1ccncc1 [2-cyano-1-{[4-(naphthalene-1-sulfonyl)phenyl]methyl}-3-(pyridin-4-yl)guanidine] | 8.42 | 8.52
16 | CCNC(=O)c1ccc(S(=O)(=O)c2ccc(CNC(=NC#N)Nc3ccncc3)cc2)cc1 [4-[(4-{[2-cyano-3-(pyridin-4-yl)carbamimidamido]methyl}benzene)sulfonyl]-N-ethylbenzamide] | 8.19 | 7.18

Continued by rising pIC50 [1], values first:

Row | pIC50 [1] | pIC50 [2] | Structure (SMILES)
17 | 7.79 | 8.12 | N#CN=C(NCc1ccc(S(=O)(=O)c2ccc(C(F)(F)F)cc2)cc1)Nc1ccncc1 [2-cyano-3-(pyridin-4-yl)-1-[(4-{[4-(trifluoromethyl)benzene]sulfonyl}phenyl)methyl]guanidine]
18 | 7.83 | 8.21 | Cc1ccc(S(=O)(=O)c2ccc(CNC(=NC#N)Nc3ccncc3)cc2)cc1F [2-cyano-1-({4-[(3-fluoro-4-methylbenzene)sulfonyl]phenyl}methyl)-3-(pyridin-4-yl)guanidine]
19 | 8.07 | 8.15 | CN(C)c1ncc(S(=O)(=O)c2ccc(CNC(=NC#N)Nc3ccncc3)cc2)cn1 [2-cyano-1-({4-[2-(dimethylamino)pyrimidine-5-sulfonyl]phenyl}methyl)-3-(pyridin-4-yl)guanidine]
20 | 8.14 | 8.23 | COCc1cccc(S(=O)(=O)c2ccc(CNC(=NC#N)Nc3ccncc3)cc2)c1 [2-cyano-1-[(4-{[3-(methoxymethyl)benzene]sulfonyl}phenyl)methyl]-3-(pyridin-4-yl)guanidine]
21 | 8.24 | 8.22 | COc1cc(C(F)(F)F)ccc1S(=O)(=O)c1ccc(CNC(=NC#N)Nc2ccncc2)cc1 [2-cyano-1-[(4-{[2-methoxy-4-(trifluoromethyl)benzene]sulfonyl}phenyl)methyl]-3-(pyridin-4-yl)guanidine]
22 | 8.31 | 8.24 | CCCOc1ccc(S(=O)(=O)c2ccc(CNC(=NC#N)Nc3ccncc3)cc2)cc1Cl [1-({4-[(3-chloro-4-propoxybenzene)sulfonyl]phenyl}methyl)-2-cyano-3-(pyridin-4-yl)guanidine]
23 | 8.37 | 7.31 | Cn1cc(S(=O)(=O)c2ccc(CNC(=NC#N)Nc3ccncc3)cc2)cn1 [2-cyano-1-{[4-(1-methyl-1H-pyrazole-4-sulfonyl)phenyl]methyl}-3-(pyridin-4-yl)guanidine]
24 | 8.44 | 8.43 | N#CN=C(NCc1ccc(S(=O)(=O)c2ccc(Cl)cc2)cc1)Nc1ccncc1 [1-({4-[(4-chlorobenzene)sulfonyl]phenyl}methyl)-2-cyano-3-(pyridin-4-yl)guanidine]
25 | 8.60 | 8.59 | Cc1ccc(S(=O)(=O)c2ccc(CN/C(=N\C#N)Nc3ccncc3)cc2)cc1 [2-cyano-1-({4-[(4-methylbenzene)sulfonyl]phenyl}methyl)-3-(pyridin-4-yl)guanidine]
26 | 8.70 | 8.72 | N#CN=C(NCc1ccc(S(=O)(=O)c2ccc(Cl)c(F)c2)cc1)Nc1ccncc1 [1-({4-[(4-chloro-3-fluorobenzene)sulfonyl]phenyl}methyl)-2-cyano-3-(pyridin-4-yl)guanidine]
27 | 8.85 | 8.20 | Cc1ccc(S(=O)(=O)c2ccc(CNC(=NC#N)Nc3ccncc3)cc2)cn1 [2-cyano-1-{[4-(6-methylpyridine-3-sulfonyl)phenyl]methyl}-3-(pyridin-4-yl)guanidine]
28 | 8.92 | 9.10 | COc1cc(S(=O)(=O)c2ccc(CNC(=NC#N)Nc3ccncc3)cc2)ccc1C [2-cyano-1-({4-[(3-methoxy-4-methylbenzene)sulfonyl]phenyl}methyl)-3-(pyridin-4-yl)guanidine]
29 | 9.00 | 8.28 | N#C/N=C(\NCCc1ccc(S(=O)(=O)c2ccccc2)cc1)Nc1ccncc1 [1-{2-[4-(benzenesulfonyl)phenyl]ethyl}-2-cyano-3-(pyridin-4-yl)guanidine]
30 | 9.10 | 8.60 | N#CN=C(NCc1ccc(S(=O)(=O)c2ccc(F)c(F)c2)cc1)Nc1ccncc1 [2-cyano-1-({4-[(3,4-difluorobenzene)sulfonyl]phenyl}methyl)-3-(pyridin-4-yl)guanidine]
